Like-named read-outs stand apart in the source and are kept apart here.
Assays:
[1] = target: EGFR wildtype (WT) (Homo sapiens, UniProt P00533); assay: Biochemical EGFR kinase inhibition assay (Lance Ultra TR-FRET), wildtype
In short: (§1)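 Step 1: compound in kinase buffer, 0.003–10 μM. Step 2: kinase reaction 1 h at room temperature. Step 4: TR-FRET read at 615/665 nm; IC50 calculated.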

[2] = target: EGFR L858R/C797S (Homo sapiens, UniProt P00533, C797S/L858R); assay: Biochemical EGFR kinase inhibition assay (Lance Ultra TR-FRET), double mutant L858R/C797S
EGFR L858R/C797S, sequence (P00533 25-1210 C797S/L858R): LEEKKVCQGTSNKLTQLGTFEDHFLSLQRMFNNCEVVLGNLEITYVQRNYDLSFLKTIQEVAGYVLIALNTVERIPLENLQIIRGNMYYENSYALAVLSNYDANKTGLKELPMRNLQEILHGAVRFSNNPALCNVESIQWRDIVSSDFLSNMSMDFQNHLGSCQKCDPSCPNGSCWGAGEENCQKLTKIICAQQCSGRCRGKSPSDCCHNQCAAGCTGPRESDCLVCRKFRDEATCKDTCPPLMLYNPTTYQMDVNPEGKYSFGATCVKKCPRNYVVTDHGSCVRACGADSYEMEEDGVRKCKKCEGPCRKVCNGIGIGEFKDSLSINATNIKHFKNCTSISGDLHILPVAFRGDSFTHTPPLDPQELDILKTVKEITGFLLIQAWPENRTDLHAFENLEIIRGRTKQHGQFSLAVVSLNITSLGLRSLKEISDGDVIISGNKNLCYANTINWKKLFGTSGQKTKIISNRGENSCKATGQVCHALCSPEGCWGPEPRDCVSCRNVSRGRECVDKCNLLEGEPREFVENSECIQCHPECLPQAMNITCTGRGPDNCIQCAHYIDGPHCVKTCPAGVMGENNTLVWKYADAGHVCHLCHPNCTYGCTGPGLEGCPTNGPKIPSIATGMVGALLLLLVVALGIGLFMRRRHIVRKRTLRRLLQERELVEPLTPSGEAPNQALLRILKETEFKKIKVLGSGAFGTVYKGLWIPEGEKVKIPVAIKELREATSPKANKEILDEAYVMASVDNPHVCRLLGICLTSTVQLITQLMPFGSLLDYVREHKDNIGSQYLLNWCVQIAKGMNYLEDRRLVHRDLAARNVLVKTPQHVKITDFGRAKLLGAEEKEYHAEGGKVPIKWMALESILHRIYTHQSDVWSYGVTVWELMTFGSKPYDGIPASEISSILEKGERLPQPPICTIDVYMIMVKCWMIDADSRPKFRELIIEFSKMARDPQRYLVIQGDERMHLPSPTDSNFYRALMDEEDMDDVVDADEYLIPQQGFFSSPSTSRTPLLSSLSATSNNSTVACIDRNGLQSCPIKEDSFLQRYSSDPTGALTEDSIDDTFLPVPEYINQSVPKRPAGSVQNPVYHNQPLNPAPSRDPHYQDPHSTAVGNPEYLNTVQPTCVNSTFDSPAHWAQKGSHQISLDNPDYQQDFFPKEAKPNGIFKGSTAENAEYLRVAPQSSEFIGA
In short: as §1

[3] = target: EGFR Del19/T790M/C797S (Homo sapiens, UniProt P00533, C797S/DEL746-750/T790M); assay: Biochemical EGFR kinase inhibition assay (Lance Ultra TR-FRET), triple mutant del19/T790M/C797S
EGFR Del19/T790M/C797S, sequence (P00533 with tags, fused parts or gaps DEL746-750/T790M/C797S): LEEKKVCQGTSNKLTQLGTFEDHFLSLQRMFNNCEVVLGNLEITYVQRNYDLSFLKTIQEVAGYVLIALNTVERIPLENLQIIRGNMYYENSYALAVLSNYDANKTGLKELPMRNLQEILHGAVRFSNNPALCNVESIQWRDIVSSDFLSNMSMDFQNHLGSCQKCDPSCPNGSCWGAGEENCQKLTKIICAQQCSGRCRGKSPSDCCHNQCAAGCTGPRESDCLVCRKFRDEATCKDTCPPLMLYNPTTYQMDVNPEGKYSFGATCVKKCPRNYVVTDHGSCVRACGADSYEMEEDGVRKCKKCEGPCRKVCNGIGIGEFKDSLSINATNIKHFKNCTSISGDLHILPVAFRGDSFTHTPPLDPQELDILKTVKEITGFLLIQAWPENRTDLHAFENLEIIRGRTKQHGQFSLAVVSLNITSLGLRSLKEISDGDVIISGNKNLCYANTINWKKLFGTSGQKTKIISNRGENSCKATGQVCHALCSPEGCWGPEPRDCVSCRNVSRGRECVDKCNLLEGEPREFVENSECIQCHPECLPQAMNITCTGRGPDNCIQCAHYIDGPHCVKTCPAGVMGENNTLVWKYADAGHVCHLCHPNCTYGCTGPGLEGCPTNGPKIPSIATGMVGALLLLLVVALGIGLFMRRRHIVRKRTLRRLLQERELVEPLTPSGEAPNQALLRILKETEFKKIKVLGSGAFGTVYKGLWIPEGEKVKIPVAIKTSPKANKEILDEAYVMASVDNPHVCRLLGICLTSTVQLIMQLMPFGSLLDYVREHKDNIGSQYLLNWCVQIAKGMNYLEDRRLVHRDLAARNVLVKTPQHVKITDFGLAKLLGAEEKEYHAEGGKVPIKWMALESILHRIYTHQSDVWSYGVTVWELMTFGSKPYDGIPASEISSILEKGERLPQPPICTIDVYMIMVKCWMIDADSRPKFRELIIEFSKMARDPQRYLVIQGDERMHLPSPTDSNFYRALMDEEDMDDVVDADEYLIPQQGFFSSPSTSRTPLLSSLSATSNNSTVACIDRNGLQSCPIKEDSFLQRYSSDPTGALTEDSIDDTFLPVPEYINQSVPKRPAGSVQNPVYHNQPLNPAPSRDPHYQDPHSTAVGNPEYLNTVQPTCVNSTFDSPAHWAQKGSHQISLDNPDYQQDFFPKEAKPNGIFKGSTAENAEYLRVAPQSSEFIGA
In short: as §1

[4] = target: EGFR Del19/C797S (Homo sapiens, UniProt P00533, C797S/DEL746-750); assay: Biochemical EGFR kinase inhibition assay (Lance Ultra TR-FRET), double mutant del19/C797S
In short: as §1

[5] = target: EGFR L858R/T790M/C797S (Homo sapiens, UniProt P00533, C797S/L858R/T790M); assay: Biochemical EGFR kinase inhibition assay (Lance Ultra TR-FRET), triple mutant L858R/T790M/C797S
EGFR L858R/T790M/C797S, sequence (P00533 25-1210 T790M/C797S/L858R): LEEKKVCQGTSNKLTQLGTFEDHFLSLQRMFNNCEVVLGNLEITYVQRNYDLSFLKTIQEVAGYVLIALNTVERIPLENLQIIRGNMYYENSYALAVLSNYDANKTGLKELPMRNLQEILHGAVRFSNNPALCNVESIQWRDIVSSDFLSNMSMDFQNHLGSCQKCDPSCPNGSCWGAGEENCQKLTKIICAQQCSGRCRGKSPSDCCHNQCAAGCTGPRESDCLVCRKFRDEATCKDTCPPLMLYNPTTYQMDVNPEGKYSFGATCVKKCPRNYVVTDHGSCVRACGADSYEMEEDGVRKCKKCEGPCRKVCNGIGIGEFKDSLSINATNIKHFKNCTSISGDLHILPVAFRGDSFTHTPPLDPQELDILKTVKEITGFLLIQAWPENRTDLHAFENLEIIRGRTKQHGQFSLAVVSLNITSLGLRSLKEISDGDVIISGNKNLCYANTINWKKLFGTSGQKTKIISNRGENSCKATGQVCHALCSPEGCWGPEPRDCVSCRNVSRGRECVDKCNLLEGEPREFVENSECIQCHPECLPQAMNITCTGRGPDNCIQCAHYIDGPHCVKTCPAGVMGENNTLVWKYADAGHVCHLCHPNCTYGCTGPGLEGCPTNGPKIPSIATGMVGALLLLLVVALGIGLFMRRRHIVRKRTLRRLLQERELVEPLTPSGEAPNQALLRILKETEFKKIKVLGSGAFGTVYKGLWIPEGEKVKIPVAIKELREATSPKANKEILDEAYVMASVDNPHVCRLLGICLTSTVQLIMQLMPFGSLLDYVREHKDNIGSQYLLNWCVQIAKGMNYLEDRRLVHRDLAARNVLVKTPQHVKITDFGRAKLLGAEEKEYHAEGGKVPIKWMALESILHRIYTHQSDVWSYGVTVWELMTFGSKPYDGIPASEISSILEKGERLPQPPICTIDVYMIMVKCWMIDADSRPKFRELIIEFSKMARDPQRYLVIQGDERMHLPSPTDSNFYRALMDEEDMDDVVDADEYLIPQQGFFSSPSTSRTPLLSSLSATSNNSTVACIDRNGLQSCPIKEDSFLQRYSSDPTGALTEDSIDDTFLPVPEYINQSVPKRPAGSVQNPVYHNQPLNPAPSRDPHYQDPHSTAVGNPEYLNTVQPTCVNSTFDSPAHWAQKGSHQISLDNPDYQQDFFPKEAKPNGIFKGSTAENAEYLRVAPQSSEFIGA
In short: as §1

[6] = Km ATP, read-out: IC50 WT (nM) Km ATP
[7] = IC50 L858R/C797S (nM), 100 μM ATP
[8] = Km ATP, read-out: IC50 L858R/C797S (nM) Km ATP
[9] = IC50 Del19/T790M/C797S (nM), 100 μM ATP
[10] = Km ATP, read-out: IC50 Del19/T790M/C797S (nM) Km ATP
[11] = IC50 Del19/C797S (nM), 100 μM ATP
[12] = Km ATP, read-out: IC50 Del19/C797S (nM) Km ATP
[13] = IC50 L858R/T790M/C797S (nM), 100 μM ATP
[14] = Km ATP, read-out: IC50 L858R/T790M/C797S (nM) Km ATP

EGFR wildtype (WT), sequence (P00533 25-1210): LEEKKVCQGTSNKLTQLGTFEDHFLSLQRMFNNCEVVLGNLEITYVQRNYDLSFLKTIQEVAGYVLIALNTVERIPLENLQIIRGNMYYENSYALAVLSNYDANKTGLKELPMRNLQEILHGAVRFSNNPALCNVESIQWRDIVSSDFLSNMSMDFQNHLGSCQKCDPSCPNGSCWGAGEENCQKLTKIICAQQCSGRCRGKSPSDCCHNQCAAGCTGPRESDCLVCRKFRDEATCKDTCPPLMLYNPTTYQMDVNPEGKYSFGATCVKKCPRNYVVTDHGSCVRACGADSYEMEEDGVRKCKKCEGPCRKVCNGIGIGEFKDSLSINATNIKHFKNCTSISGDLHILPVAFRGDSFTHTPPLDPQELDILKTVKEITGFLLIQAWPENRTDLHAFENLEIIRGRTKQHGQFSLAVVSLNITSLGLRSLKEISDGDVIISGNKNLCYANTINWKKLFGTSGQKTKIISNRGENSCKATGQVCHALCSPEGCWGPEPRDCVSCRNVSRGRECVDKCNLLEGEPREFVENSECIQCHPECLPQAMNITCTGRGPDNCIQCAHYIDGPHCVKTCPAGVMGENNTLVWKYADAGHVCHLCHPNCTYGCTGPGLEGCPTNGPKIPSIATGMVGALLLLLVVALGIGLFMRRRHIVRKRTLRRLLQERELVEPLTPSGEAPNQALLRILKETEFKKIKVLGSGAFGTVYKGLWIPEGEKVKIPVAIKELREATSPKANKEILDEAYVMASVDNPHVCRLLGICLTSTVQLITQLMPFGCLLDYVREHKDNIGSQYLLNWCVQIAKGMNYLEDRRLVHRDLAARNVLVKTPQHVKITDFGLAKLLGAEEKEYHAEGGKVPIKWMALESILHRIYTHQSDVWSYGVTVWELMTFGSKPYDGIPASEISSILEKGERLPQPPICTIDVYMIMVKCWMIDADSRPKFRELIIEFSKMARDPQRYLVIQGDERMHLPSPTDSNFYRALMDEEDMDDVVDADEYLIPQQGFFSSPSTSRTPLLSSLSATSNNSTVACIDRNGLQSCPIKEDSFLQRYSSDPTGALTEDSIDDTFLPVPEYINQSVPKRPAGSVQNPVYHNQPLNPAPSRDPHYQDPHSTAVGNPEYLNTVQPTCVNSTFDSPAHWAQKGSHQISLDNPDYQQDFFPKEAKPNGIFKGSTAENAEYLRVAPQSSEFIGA

Row | Structure (SMILES) | IC50 ([1]; IC50 WT (nM), 100 μM ATP) [nM] | IC50 [1, 6] [nM] | IC50 [2, 7] [nM] | IC50 [2, 8] [nM] | IC50 [3, 9] [nM] | IC50 [3, 10] [nM] | IC50 [4, 11] [nM] | IC50 [4, 12] [nM] | IC50 [5, 13] [nM] | IC50 [5, 14] [nM]
1 | CC1(CO)CCN(c2cc(Nc3ccnc(-c4cnn(S(=O)(=O)C5CC5)c4)n3)ncc2C#Cc2cnn(C3CCOCC3)c2)CC1 [Example 95, (1-(2-((2-(1-(Cyclopropylsulfonyl)-1H-pyrazol-4-yl)pyrimidin-4-yl)amino)-5-((1-(tetrahydro-2H-pyran-4-yl)-1H-pyrazol-4-yl)ethynyl)pyridin-4-yl)-4-methylpiperidin-4-yl)methanol] | 1040 | 5 | 4.1 | 1.4 | 1.6 | 1.5 | 2.3 | 2.7 | 2 | 0.9
2 | O=S(=O)(C1CC1)n1cc(-c2nccc(Nc3cc(N4CCC(F)(CO)CC4)c(C#Cc4cnn(C5CCOCC5)c4)cn3)n2)cn1 [Example 96, (1-(2-((2-(1-(Cyclopropylsulfonyl)-1H-pyrazol-4-yl)pyrimidin-4-yl)amino)-5-((1-(tetrahydro-2H-pyran-4-yl)-1H-pyrazol-4-yl)ethynyl)pyridin-4-yl)-4-fluoropiperidin-4-yl)methanol] | > 10000 | 12.8 | 8.1 | 1.5 | 1 | 1 | 3.1 | 3 | 2.1 | 0.6
3 | O=S(=O)(C1CC1)n1cc(-c2nccc(Nc3cc(N4CCC(F)CC4)c(C#Cc4cnn(C5CCOCC5)c4)cn3)n2)cn1 [Example 97, 2-(1-(Cyclopropylsulfonyl)-1H-pyrazol-4-yl)-N-(4-(4-fluoropiperidin-1-yl)-5-((1-(tetrahydro-2H-pyran-4-yl)-1H-pyrazol-4-yl)ethynyl)pyridin-2-yl)pyrimidin-4-amine] | > 10000 | 86.5 | 162 | 9.2 | 1.8 | 1.8 | 25.1 | 18.3 | 5.9 | 1.7
4 | COC1CCN(c2cc(Nc3ccnc(-c4cnn(S(=O)(=O)C5CC5)c4)n3)ncc2C#Cc2cnn(C3CCOCC3)c2)CC1 [Example 98, 2-(1-(Cyclopropylsulfonyl)-1H-pyrazol-4-yl)-N-(4-(4-methoxypiperidin-1-yl)-5-((1-(tetrahydro-2H-pyran-4-yl)-1H-pyrazol-4-yl)ethynyl)pyridin-2-yl)pyrimidin-4-amine] | > 10000 | 72 | 101 | 7.5 | 2.1 | 2.3 | 21.1 | 15.5 | 9.9 | 2.3
5 | O=S(=O)(C1CC1)n1cc(-c2nccc(Nc3cc(N4CCCC(O)C4)c(C#Cc4cnn(C5CCOCC5)c4)cn3)n2)cn1 (centres unmarked) [Example 99, 1-(2-((2-(1-(Cyclopropylsulfonyl)-1H-pyrazol-4-yl)pyrimidin-4-yl)amino)-5-((1-(tetrahydro-2H-pyran-4-yl)-1H-pyrazol-4-yl)ethynyl)pyridin-4-yl)piperidin-3-ol] | > 10000 | 41.7 | 58.1 | 4.2 | 0.7 | 0.7 | 14 | 10.4 | 3 | 0.8
6 | O=S(=O)(C1CC1)n1cc(-c2nccc(Nc3cc(N4CCCC(CO)C4)c(C#Cc4cnn(C5CCOCC5)c4)cn3)n2)cn1 (centres unmarked) [Example 100, (1-(2-((2-(1-(Cyclopropylsulfonyl)-1H-pyrazol-4-yl)pyrimidin-4-yl)amino)-5-((1-(tetrahydro-2H-pyran-4-yl)-1H-pyrazol-4-yl)ethynyl)pyridin-4-yl)piperidin-3-yl)methanol] | > 10000 | 62 | 73.9 | 7.1 | 1.6 | 1.7 | 12.9 | 10.7 | 5.6 | 1.3
7 | CC1(CO)CCN(c2cc(Nc3ccnc(-c4cnn(S(=O)(=O)C5CC5)c4)n3)ncc2C#Cc2cnn(C(F)(F)F)c2)CC1 [Example 101, (1-(2-((2-(1-(Cyclopropylsulfonyl)-1H-pyrazol-4-yl)pyrimidin-4-yl)amino)-5-((1-(trifluoromethyl)-1H-pyrazol-4-yl)ethynyl)pyridin-4-yl)-4-methylpiperidin-4-yl)methanol] | > 10000 | 32 | 104 | 3 | 3.2 | 3.5 | 7.9 | 4.3 | 4.8 | 2.4
8 | O=S(=O)(C1CC1)n1cc(-c2nccc(Nc3cc(N[C@H]4CC[C@@H](O)CC4)c(C#Cc4cnn(C(F)(F)F)c4)cn3)n2)cn1 [Example 102, (1s,4s)-4-((2-((2-(1-(Cyclopropylsulfonyl)-1H-pyrazol-4-yl)pyrimidin-4-yl)amino)-5-((1-(trifluoromethyl)-1H-pyrazol-4-yl)ethynyl)pyridin-4-yl)amino)cyclohexan-1-ol] | > 10000 | 186 | 1030 | 15.7 | 2.7 | 2.8 | 26.6 | 13.9 | 7.6 | 2.1
9 | O=S(=O)(C1CC1)n1cc(-c2nccc(Nc3cc(N[C@H]4CCC[C@H](O)C4)c(C#Cc4cnn(C(F)(F)F)c4)cn3)n2)cn1 [Example 103, (1 S,3S)-3-((2-((2-(1-(Cyclopropylsulfonyl)-1H-pyrazol-4-yl)pyrimidin-4-yl)amino)-5-((1-(trifluoromethyl)-1H-pyrazol-4-yl)ethynyl)pyridin-4-yl)amino)cyclohexan-1-ol] | > 10000 | 1070 | 1230 | 104 | 3.5 | 2.7 | 87.3 | 66.8 | 8.5 | 2.8
10 | CC1(O)CC2(CCN(c3cc(Nc4ccnc(-c5cnn(S(=O)(=O)C6CC6)c5)n4)ncc3C#Cc3cnn(C(F)(F)F)c3)CC2)C1 [Example 104, 7-(2-((2-(1-(Cyclopropylsulfonyl)-1H-pyrazol-4-yl)pyrimidin-4-yl)amino)-5-((1-(trifluoromethyl)-1H-pyrazol-4-yl)ethynyl)pyridin-4-yl)-2-methyl-7-azaspiro[3.5]nonan-2-ol] | > 10000 | 89.4 | 119 | 32.3 | 4.1 | 3.1 | 12.4 | 9.7 | 3 | 1.1
11 | C[C@]1(O)CC[C@@H](Nc2cc(Nc3ccnc(-c4cnn(S(=O)(=O)C5CC5)c4)n3)ncc2C#Cc2cnn(C(F)(F)F)c2)CC1 [Example 105, (1s,4s)-4-((2-((2-(1-(Cyclopropylsulfonyl)-1H-pyrazol-4-yl)pyrimidin-4-yl)amino)-5-((1-(trifluoromethyl)-1H-pyrazol-4-yl)ethynyl)pyridin-4-yl)amino)-1-methylcyclohexan-1-ol] | > 10000 | 2520 | 2200 | 100 | 3.2 | 2.3 | 64.2 | 48.7 | 6.5 | 1.5
12 | Cn1ccc(C#Cc2cnc(Nc3ccnc(-c4cnn(S(=O)(=O)C5CC5)c4)n3)cc2N[C@H]2CC[C@@H](O)CC2)n1 [Example 106, (1s,4s)-4-((2-((2-(1-(Cyclopropylsulfonyl)-1H-pyrazol-4-yl)pyrimidin-4-yl)amino)-5-((1-methyl-1H-pyrazol-3-yl)ethynyl)pyridin-4-yl)amino)cyclohexan-1-ol] | > 10000 | 95.5 | 274 | 6.1 | 1.1 | 1 | 15.1 | 12.5 | 1.6 | 0.6
13 | Cn1ccc(C#Cc2cnc(Nc3ccnc(-c4cnn(S(=O)(=O)C5CC5)c4)n3)cc2N2CCC(C)(CO)CC2)n1 [Example 107, (1-(2-((2-(1-(Cyclopropylsulfonyl)-1H-pyrazol-4-yl)pyrimidin-4-yl)amino)-5-((1-methyl-1H-pyrazol-3-yl)ethynyl)pyridin-4-yl)-4-methylpiperidin-4-yl)methanol] | > 10000 | 24.1 | 85.6 | 1.9 | 1.2 | 1.2 | 4.6 | 3.2 | 1.3 | 0.6
14 | CC(=O)N1CCC(n2cc(C#Cc3cnc(Nc4ccnc(-c5cnn(S(=O)(=O)C6CC6)c5)n4)cc3N3CCC(=O)CC3)cn2)CC1 [Example 108, 1-(5-((1-(1-Acetylpiperidin-4-yl)-1H-pyrazol-4-yl)ethynyl)-2-((2-(1-(cyclopropylsulfonyl)-1H-pyrazol-4-yl)pyrimidin-4-yl)amino)pyridin-4-yl)piperidin-4-one] | > 10000 | 126 | 154 | 8.4 | 1.2 | 1.1 | 29.8 | 25.5 | 7.8 | 1.6
